Drawing on PubChem BioAssay AID434987 (Southern Research Specialized Biocontainment Screening …, 2010), this text covers IC50 and IC90 for 32 compounds.

This assay has as its system M. tuberculosis H37Rv growth inhibition with meropenem. Kind of assay: dose response, H37Rv, with and without meropenem (AID 434987).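 Further: growth over 7 days at 37 °C before Alamar Blue read on day 9.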
Setting [1] is: M. tuberculosis H37Rv growth inhibition, measured here: IC50 without meropenem.
[2] abbreviates: M. tuberculosis H37Rv growth inhibition, measured here: IC90 without meropenem.
Setting [3] is: measured here: IC90 with meropenem.

pIC50: −log10 of the molar value. The source made the active and inactive calls. How the calls were made is not given here.

As a reminder, the pIC50 is the IC50 on a negative log10 scale, so that one unit is a factor of ten. For orientation: IC90 means the point of the concentration-response curve where the effect stands at 90%. Regarding `CCOC(=O)N1CCN(C(=O)CSc2nnc(COc3ccccc3)o2)CC1`, the pIC50 is 5.13. For the same compound, the pIC50 under setting [1] was 4.67. In addition, the IC90 under setting [2] was 72.9 µM. The IC90 under setting [3] came out at 18.4 µM.
As to `O=C(NN1C(=O)C2C(C1=O)C1C=CC2C12CC2)c1ccncc1` (stereo not drawn), the pIC50 is 4.91. In addition, the pIC50 under setting [1] is 4.25. This compound also had an IC90 under setting [2] of over 100 µM. The compound also had an IC90 under setting [3] of 13.9 µM.
In general, IC50 refers to the concentration at which inhibition is half-maximal. Consider `O=C(COC(=O)Cc1ccc(S(=O)(=O)N2CCCCC2)s1)Nc1ccc2c(c1)OCO2`, for which the IC50 was 76.2 µM (inactive). This compound also gave a pIC50 under setting [1] of 4.16. The compound also had an IC90 under setting [2] of over 100 µM. In addition, the IC90 under setting [3] was over 100 µM.
With `COc1cccc(NC(=O)C(=O)c2cn(CC(=O)N3CCOCC3)c3ccccc23)c1`, the IC50 is > 100 µM (inactive). Further, the pIC50 under setting [1] is under 4.00. Moreover, the IC90 under setting [2] was over 100 µM. The compound further yielded an IC90 under setting [3] of over 100 µM.
With `COc1ccc(NC(=O)CSc2nc(N)c(C(=O)Nc3ccc(N(C)C)cc3)s2)cc1`, the pIC50 is 4.64. This compound showed a pIC50 under setting [1] of under 4.00. Under setting [2], this compound showed an IC90 of over 100 µM. For the same compound, the IC90 under setting [3] was over 100 µM.
Consider `O=C(OCC(=O)N(Cc1ccccc1)C1CCS(=O)(=O)C1)c1cc2c(s1)CCCC2` (stereo not drawn), for which the IC50 was 90.7 µM (inactive). Further, under setting [1], the pIC50 is 4.03. Also, the IC90 under setting [2] was over 100 µM. This compound came in with an IC90 under setting [3] of over 100 µM.
As for `COC(=O)c1sc(-c2ccc(C(C)(C)C)cc2)cc1NC(=O)CCC(=O)O`, the pIC50 was 5.86. Moreover, the pIC50 under setting [1] was 4.62. Also, under setting [2], the IC90 is over 100 µM. Under setting [3], the 90% effect concentration (IC90) worked out at 28.7 µM.
In the case of `CN(c1ccc(OCC(=O)OCC(=O)c2c(N)n(C)c(=O)n(C)c2=O)cc1)S(=O)(=O)c1ccc2ccccc2c1`, the pIC50 was 4.58. Under setting [1], this compound had a pIC50 of under 4.00. This compound also had an IC90 under setting [2] of over 100 µM. The compound also yielded an IC90 under setting [3] of over 100 µM.
Regarding `Cc1ccc(C(=O)Nc2c(C)cc(C)c3cccnc23)cc1`, the pIC50 is 5.62. This compound also showed a pIC50 under setting [1] of 4.99. The compound further gave an IC90 under setting [2] of over 50 µM. In addition, under setting [3], the IC90 is 10.5 µM.
On the same counts, the results for `O=C(Nc1ccccc1)Nc1csc2ccccc12` are over 6.70, 4.62, over 100 µM and 20.9 µM.
As for `CCN(CC)C(=O)CSc1nnc2nnc3cc(OC)ccc3n12`, the IC50 was 12 µM (inactive). The compound further had a pIC50 under setting [1] of 4.56. Besides, the IC90 under setting [2] was determined as 51.7 µM. The IC90 under setting [3] turned out to be 13.4 µM.
Consider `CCOC(=O)c1cc(-c2ccccc2)sc1NC(=O)C(C)N1C(=O)NC(C)(c2ccc(Cl)cc2)C1=O` (stereo not drawn), for which the IC50 was > 100 µM (inactive). The compound also had a pIC50 under setting [1] of under 4.00. Also, the IC90 under setting [2] was over 100 µM. Under setting [3], this compound had an IC90 of over 100 µM.
Turning to `COc1cc(C(=O)Oc2ccccc2/C=N/NC(=O)c2ccc(C)c(Cl)c2)cc(OC)c1OC`, the pIC50 was 5.71. This compound also gave a pIC50 under setting [1] of under 4.00. Further, the IC90 under setting [2] is over 100 µM. Also, the IC90 under setting [3] was over 3.13 µM.
In the case of `CN(C)CC(=O)Nc1nc(-c2ccccc2)cs1`, the pIC50 was 4.98. Under setting [1], this compound showed a pIC50 of 4.08. For the same compound, under setting [2], the IC90 was over 100 µM. The compound further showed an IC90 under setting [3] of over 100 µM.
`O=C(Cc1ccccc1Cl)Nc1nc2ccccc2[nH]1`: the pIC50 was 5.03. For the same compound, the pIC50 under setting [1] was under 4.00. Besides, the IC90 under setting [2] was over 100 µM. Under setting [3], this compound came in with an IC90 of over 25 µM.
With `Cc1nc(Nc2ccc(Cl)cc2Cl)sc1C(=O)Nc1ccccc1`, the IC50 was > 100 µM (inactive). Also, the pIC50 under setting [1] was under 4.00. Also, under setting [2], the IC90 was over 100 µM. In addition, the IC90 under setting [3] is over 100 µM.
On to `CCC(=O)Oc1oc(-c2ccccc2)nc1C=Nc1ccc(C)cc1`, for which the IC50 was > 100 µM (inactive). For the same compound, the pIC50 under setting [1] is under 4.00. Under setting [2], this compound had an IC90 of over 100 µM. In addition, the IC90 under setting [3] was over 100 µM.
As for `Cc1onc(-c2ccccc2)c1C(=O)Nc1ccc(-c2nnc3n2CCCCC3)cc1`, the IC50 is 23.8 µM (inactive). Moreover, the pIC50 under setting [1] was 4.53. Also, the IC90 under setting [2] turned out to be 71.2 µM. Besides, the IC90 under setting [3] was 38.6 µM.
For `COc1ccccc1-c1cc(C(=O)Nc2c(C)n(C)n(-c3ccccc3)c2=O)no1`, the pIC50 was 5.18. Besides, the pIC50 under setting [1] is 4.41. Under setting [2], the IC90 is 88.1 µM. The same compound showed an IC90 under setting [3] of 19.5 µM.
For the compound `CCO[C@H]1OC(C(=O)NCc2nc3ccccc3[nH]2)=C[C@@H](c2cn(C(C)=O)c3ccccc23)[C@@H]1CCCO`, the IC50 is 90.7 µM (inactive). The compound further showed a pIC50 under setting [1] of 4.10. Under setting [2], this compound returned an IC90 of over 100 µM. The compound further gave an IC90 under setting [3] of over 100 µM.
With `CC(C)(C)c1ccc(OCc2ccc(C(=O)N/N=C3\CC4CC=CC34)cc2)cc1` (stereo not drawn), the IC50 was 26.2 µM (inactive). The compound further gave a pIC50 under setting [1] of 4.51. Also, the IC90 under setting [2] came to 46.5 µM. The same compound had an IC90 under setting [3] of 45.3 µM.
`NC(=S)N/N=C/c1ccc(/C=N/NC(N)=S)cc1`: the pIC50 is 5.60. Further, under setting [1], the pIC50 was under 4.00. The compound further had an IC90 under setting [2] of over 100 µM. In addition, under setting [3], the IC90 was over 100 µM.
For the compound `CC(C)(C)[C@@H]1C=C(C(=O)Nc2ccccc2)O[C@H](OCc2ccc(CO)cc2)C1`, the IC50 is 75 µM (inactive). Besides, under setting [1], the pIC50 is 4.03. Besides, under setting [2], the IC90 was over 100 µM. Besides, the IC90 under setting [3] is over 100 µM.
As to `O=C(COc1ccccc1[N+](=O)[O-])N(Cc1cccc(Br)c1)C1CCS(=O)(=O)C1` (stereo not drawn), the IC50 was > 100 µM (inactive). The compound further showed a pIC50 under setting [1] of under 4.00. Under setting [2], this compound registered an IC90 of over 100 µM. The same compound registered an IC90 under setting [3] of over 100 µM.
With `N#Cc1c(SCC(=O)O)nc(N2CCCCC2)c2c1CCCC2`, the negative-log IC50 (pIC50) is 4.81. This compound gave a negative-log IC50 (pIC50) under setting [1] of 4.30. This compound came in with an IC90 under setting [2] of over 100 µM. Under setting [3], this compound had an IC90 of 27 µM.
Turning to `CCn1cc(C(=O)O)c(=O)c2cc(F)c(N3CCN(C(=S)NC(=O)c4ccccc4C)CC3)cc21`, the IC50 was 10.9 µM (inactive). Moreover, under setting [1], the pIC50 was 4.71. Besides, the IC90 under setting [2] is 28.3 µM. Under setting [3], the IC90 was determined as 16 µM.
`COc1ccc(NC(=O)C(Cc2ccccc2)n2cccc2)c(OC)c1` (stereo not drawn): the pIC50 is 4.87. The pIC50 under setting [1] is 4.32. The IC90 under setting [2] is over 100 µM. Under setting [3], this compound gave an IC90 of over 100 µM.
On to `Cc1ccc(-n2ncc3c(=O)n(CC#N)cnc32)cc1C`, for which the pIC50 was 4.68. Under setting [1], this compound had a pIC50 of 4.29. This compound had an IC90 under setting [2] of over 100 µM. The same compound came in with an IC90 under setting [3] of over 100 µM.
Regarding `O=C(N/N=C/c1c(Cl)cccc1Cl)c1cccc(F)c1`, the IC50 is > 100 µM (inactive). Besides, the pIC50 under setting [1] was under 4.00. In addition, the IC90 under setting [2] is over 100 µM. The IC90 under setting [3] is over 100 µM.
For the compound `COC(=O)c1c(C(=O)OC)c(C)n(Cc2ccco2)c1C`, the IC50 was 64.4 µM (inactive). The pIC50 under setting [1] is under 4.00. This compound also came in with an IC90 under setting [2] of over 100 µM. Under setting [3], this compound yielded an IC90 of over 100 µM.
In the case of `COc1ccc([C@H]2CC(=O)C=C(/C=C/c3ccccc3)C2)cc1OC`, the IC50 is > 100 µM (inactive). Moreover, under setting [1], the pIC50 is under 4.00. The same compound showed an IC90 under setting [2] of over 100 µM. For the same compound, under setting [3], the IC90 is over 100 µM.
`CCCCOc1ccc(C(=O)Oc2cccnc2)cc1`: the pIC50 was 4.71. The compound also showed a pIC50 under setting [1] of under 4.00. Also, the IC90 under setting [2] is over 100 µM. Also, the IC90 under setting [3] was over 100 µM.
